# From patent US12370182B2, “Bicyclic derivatives as GABAA A5 receptor modulators” (RICHTER GEDEON NYRT., priority 2018, dated 2025)
# Target: human recombinant GABAA α5β3γ2 receptor (Homo sapiens (Human), UniProt P18507+P31644)
# Experiment: Binding assay, [3H]Ro151788 displacement on membranes of HEK cells
# Conditions: 0.5 nM [3H]Ro151788, 60 minutes at 4° C., Cheng-Prusoff; read-out: hGABAA α5 Ki
# Experimental: The GABAA α5β3γ2 protein used for the receptor binding assay was derived from membranes produced from HEK cells (Millipore CYL3073) expressing the human recombinant GABAA α5β3γ2 receptor. Cells were stored and cultured in-house according to the instructions provided by the vendor (Millipor). Cell pellet was homogenized in 10 times modified Krebs Henseleit buffer (membrane preparation buffer): 20 mM Tris, 120 mM NaCl, 100 mM KCl, 25 mM CaCl2) and 25 mM MgCl2 pH=7.4 at 4° C. using Ultra Turrax (Janke&Kunkel) maximal speed for 15 seconds. The homogenate was centrifuged at 40,000 g for 30 minutes at 4° C. Supernatant was discarded and the resulting pellet was washed in membrane preparation buffer. Pellet was resuspended in membrane preparation buffer and aliquots of 1.4 mL ampulles were stored at −70° C. until use.
# Receptor binding assays were performed in 96-well format in deep-well plates. For each 96-well plate one ampulle of membrane homogenate was thawed and diluted in binding buffer (50 mM Tris pH=7.4, 100 mM KCl) and 200 μL was dispensed into each well. Radioligand [^3H]Ro151788 (Perkin Elmer: NET757250UC) was prepared in binding buffer and added to each well in 50 μL volume to give final concentration of 0.5 nM. Test compounds in suitable concentration(s) were added in additional 50 μL. The final assay volume was 300 μL. Incubation was carried out for 60 minutes at 4° C. For non-specific binding 10 μM unlabeled diazepam was used. After incubation samples were filtered over UniFilter® GF/B™ using Filtermate Harvester (Perkin Elmer) and washed with 5×1 mL binding buffer. The plate was dried at 40° C. for an hour and 40 μL Microscint (Perkin Elmer) scintillation cocktail was added to each well. The plate was read in Microbeta (Perkin Elmer).
# The specific radioligand binding (SB) was defined as the difference between total binding (Tot) and the non-specific binding (NSB). Results are expressed as a percent inhibition of specific binding obtained in the presence of compound of interest.
# For IC50 and Ki determination a minimum of six drug concentrations in triplicate were used. […] Ki values (i.e. inhibition constants) were calculated using the Cheng-Prusoff equation Ki=IC50/[1+(L/KD)], where [L] is the radioligand concentration and KD the affinity of the labelled ligand for receptor. KD was determined from the Saturation analyses.
# Sequence of human recombinant GABAA α5β3γ2 receptor (P31644 32-462): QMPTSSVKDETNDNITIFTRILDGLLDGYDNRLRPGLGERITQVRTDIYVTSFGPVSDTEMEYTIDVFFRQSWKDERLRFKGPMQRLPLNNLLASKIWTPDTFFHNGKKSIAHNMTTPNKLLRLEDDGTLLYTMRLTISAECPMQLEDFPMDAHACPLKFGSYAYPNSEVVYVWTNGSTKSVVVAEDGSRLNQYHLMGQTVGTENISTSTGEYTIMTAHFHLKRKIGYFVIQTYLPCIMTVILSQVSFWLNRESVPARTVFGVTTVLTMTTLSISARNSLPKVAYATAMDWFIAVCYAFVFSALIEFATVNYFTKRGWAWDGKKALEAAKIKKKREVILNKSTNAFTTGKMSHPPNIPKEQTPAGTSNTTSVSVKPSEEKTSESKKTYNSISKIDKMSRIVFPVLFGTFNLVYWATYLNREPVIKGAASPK
# Sequence of human recombinant GABAA α5β3γ2 receptor (P28472 26-473 partner): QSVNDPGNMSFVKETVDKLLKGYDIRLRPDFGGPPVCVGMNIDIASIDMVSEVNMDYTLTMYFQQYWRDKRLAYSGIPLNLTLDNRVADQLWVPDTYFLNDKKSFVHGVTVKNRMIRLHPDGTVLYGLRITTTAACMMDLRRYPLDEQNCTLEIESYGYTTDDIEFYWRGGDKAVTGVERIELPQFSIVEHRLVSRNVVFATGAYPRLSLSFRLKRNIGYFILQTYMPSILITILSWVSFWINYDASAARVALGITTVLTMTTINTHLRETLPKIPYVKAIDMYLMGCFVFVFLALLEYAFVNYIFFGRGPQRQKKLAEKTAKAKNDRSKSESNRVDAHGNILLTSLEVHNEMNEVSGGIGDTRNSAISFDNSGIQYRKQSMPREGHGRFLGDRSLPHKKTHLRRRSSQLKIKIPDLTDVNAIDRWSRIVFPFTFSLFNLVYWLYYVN
# Sequence of human recombinant GABAA α5β3γ2 receptor (P18507 40-475): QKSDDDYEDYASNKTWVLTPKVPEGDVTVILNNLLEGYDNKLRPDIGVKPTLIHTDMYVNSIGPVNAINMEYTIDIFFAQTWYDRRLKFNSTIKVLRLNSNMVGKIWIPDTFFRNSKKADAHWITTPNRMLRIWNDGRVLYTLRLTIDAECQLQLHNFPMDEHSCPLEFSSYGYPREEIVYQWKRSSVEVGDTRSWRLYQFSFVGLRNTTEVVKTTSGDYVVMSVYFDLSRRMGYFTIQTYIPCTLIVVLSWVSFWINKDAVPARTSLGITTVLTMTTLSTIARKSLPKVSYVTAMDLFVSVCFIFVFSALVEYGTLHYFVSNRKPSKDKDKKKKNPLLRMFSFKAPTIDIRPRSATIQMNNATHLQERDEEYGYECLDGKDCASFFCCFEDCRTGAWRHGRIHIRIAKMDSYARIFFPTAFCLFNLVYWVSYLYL
row,Ki [nM],SMILES
1,25,"CCC(=O)N1Cc2ccc(OCc3c(-c4ccc(F)cc4)nnn3C)nc2C1 [Example 69, 1-(2-{[4-(4-fluorophenyl)-1-methyl-1H-1,2,3-triazol-5-yl]methoxy}-5,7-dihydro-6H-pyrrolo[3,4-b]pyridin-6-yl)propan-1-one]"
2,37,"CCC(=O)N1Cc2ccc(OCc3c(C)nnn3-c3ccc(F)cc3)nc2C1 [Example 52, 1-(2-{[1-(4-fluorophenyl)-4-methyl-1H-1,2,3-triazol-5-yl]methoxy}-5,7-dihydro-6H-pyrrolo[3,4-b]pyridin-6-yl)propan-1-one]"
3,46,"Cn1nnc(-c2ccc(F)cc2)c1COc1ccc2c(n1)CN(C(=O)C1CCCOC1)C2 (stereo not shown) [Example 74, 4-(4-fluorophenyl)-1-methyl-5-({[6-(oxane-3-carbonyl)-5H,6H,7H-pyrrolo[3,4-b]pyridin-2-yl]oxy}methyl)-1H-1,2,3-triazole]"
4,20,"CC(=O)N1Cc2ccc(OCc3c(-c4ccc(F)cc4)nnn3C)nc2C1 [Example 67, 1-(2-{[4-(4-fluorophenyl)-1-methyl-1H-1,2,3-triazol-5-yl]methoxy}-5,7-dihydro-6H-pyrrolo[3,4-b]pyridin-6-yl)ethanone]"
5,59,"Cc1nnn(-c2ccc(F)cc2)c1COc1ccc2c(n1)CN(C(=O)c1ccccn1)C2 [Example 66, 2-(2-{[1-(4-fluorophenyl)-4-methyl-1H-1,2,3-triazol-5-yl]methoxy}-5H,6H,7H-pyrrolo[3,4-b]pyridine-6-carbonyl)pyridine]"

# More lines, now with the values behind:
row,SMILES,Ki [nM]
1,"Cc1onc(-c2ccc(F)cc2)c1COc1ccc2c(n1)CCN(C(=O)C1CCCO1)C2 (stereo not shown) [Example 7, 2-{[3-(4-fluorophenyl)-5-methyl-1,2-oxazol-4-yl]methoxy}-6-(oxolane-2-carbonyl)-5,6,7,8-tetrahydro-1,6-naphthyridine]",6.8
2,"Cc1nnn(-c2ccc(F)cc2)c1COc1ccc2c(n1)CCN(C(=O)C1(C)CCOC1)C2 (stereo not shown) [Example 31, 2-{[1-(4-fluorophenyl)-4-methyl-1H-1,2,3-triazol-5-yl]methoxy}-6-(3-methyloxolane-3-carbonyl)-5,6,7,8-tetrahydro-1,6-naphthyridine]",44
3,"CCN1CC(C(=O)N2CCc3nc(OCc4c(C)nnn4-c4ccc(F)cc4)ccc3C2)CC1=O (stereo not shown) [Example 43, 1-ethyl-4-(2-{[1-(4-fluorophenyl)-4-methyl-1H-1,2,3-triazol-5-yl]methoxy}-5,6,7,8-tetrahydro-1,6-naphthyridine-6-carbonyl)pyrrolidin-2-one]",30
4,"Cc1nnn(-c2ccc(F)cc2)c1COc1ccc2c(n1)CN(C(=O)C1CCOCC1)C2 [Example 55, 1-(4-fluorophenyl)-4-methyl-5-({[6-(oxane-4-carbonyl)-5H,6H,7H-pyrrolo[3,4-b]pyridin-2-yl]oxy}methyl)-1H-1,2,3-triazole]",13
5,"Cc1nnn(-c2ccc(F)cc2)c1COc1ccc2c(n1)CCN(C(=O)C1CCC(=O)N(C)C1)C2 (stereo not shown) [Example 46, 5-(2-{[1-(4-fluorophenyl)-4-methyl-1H-1,2,3-triazol-5-yl]methoxy}-5,6,7,8-tetrahydro-1,6-naphthyridine-6-carbonyl)-1-methylpiperidin-2-one]",84
6,"Cc1nnn(-c2ccc(F)cc2)c1COc1ccc2c(n1)CN(C(=O)c1cccnc1)C2 [Example 65, 3-(2-{[1-(4-fluorophenyl)-4-methyl-1H-1,2,3-triazol-5-yl]methoxy}-5H,6H,7H-pyrrolo[3,4-b]pyridine-6-carbonyl)pyridine]",28
7,"Cc1nnn(-c2ccc(F)cc2)c1COc1ccc2c(n1)CCN(C(=O)c1ccncc1)C2 [Example 25, 2-{[1-(4-fluorophenyl)-4-methyl-1H-1,2,3-triazol-5-yl]methoxy}-6-(pyridine-4-carbonyl)-5,6,7,8-tetrahydro-1,6-naphthyridine]",29
8,"Cc1onc(-c2ccc(F)cc2)c1COc1ccc2c(n1)CCN(C(=O)NC1CCOC1)C2 (stereo not shown) [Example 86, 2-{[3-(4-fluorophenyl)-5-methyl-1,2-oxazol-4-yl]methoxy}-N-(oxolan-3-yl)-5,6,7,8-tetrahydro-1,6-naphthyridine-6-carboxamide]",6.5
